{"source": "patent US11279714B2", "about": "“Anti-infective compounds” (priority 2014, dated 2022)", "format_in_all_cases": "cell-based, Mycobacterium", "details_in_all_cases": "REMA, 1 week + 1 day resazurin; relative to H37Rv", "key": {"[1]": {"system": "MDR-33 (clinical isolate of multidrug-resistance tuberculosis)"}, "[2]": {"system": "MDR-137 (clinical isolate of multidrug-resistance tuberculosis)"}, "[3]": {"system": "MDR-146 (clinical isolate of multidrug-resistance tuberculosis)"}}, "data": [{"smiles": "Cc1nc2cc(NC(=O)c3cc4sc(N5CCOCC5)nc4s3)ccc2o1", "note": "[Compound 83]", "values": [{"measurement": "Antibacterial activity MDR-33", "setting": "[1]", "result": "+++ (+++ indicates <2 times of MIC50 on wild type strain (H37Rv))"}, {"measurement": "Antibacterial activity MDR-137", "setting": "[2]", "result": "+++ (+++ indicates <2 times of MIC50 on wild type strain (H37Rv))"}, {"measurement": "Antibacterial activity MDR-146", "setting": "[3]", "result": "+++ (+++ indicates <2 times of MIC50 on wild type strain (H37Rv))"}]}, {"smiles": "COc1ccc(NC(=O)c2cc3sc(N4CCC(C(=O)N(C)C)CC4)nc3s2)cc1", "note": "[Compound 127]", "values": [{"measurement": "Antibacterial activity MDR-33", "setting": "[1]", "result": "+++ (+++ indicates <2 times of MIC50 on wild type strain (H37Rv))"}, {"measurement": "Antibacterial activity MDR-137", "setting": "[2]", "result": "+++ (+++ indicates <2 times of MIC50 on wild type strain (H37Rv))"}, {"measurement": "Antibacterial activity MDR-146", "setting": "[3]", "result": "+++ (+++ indicates <2 times of MIC50 on wild type strain (H37Rv))"}]}, {"smiles": "Cc1nc2cc(NC(=O)c3cc4sc(N5CCC(CO)CC5)nc4s3)ccc2o1", "note": "[Compound 144]", "values": [{"measurement": "Antibacterial activity MDR-33", "setting": "[1]", "result": "+++ (+++ indicates <2 times of MIC50 on wild type strain (H37Rv))"}, {"measurement": "Antibacterial activity MDR-137", "setting": "[2]", "result": "+++ (+++ indicates <2 times of MIC50 on wild type strain (H37Rv))"}, {"measurement": "Antibacterial activity MDR-146", "setting": "[3]", "result": "+++ (+++ indicates <2 times of MIC50 on wild type strain (H37Rv))"}]}, {"smiles": "COCCN(C)c1nc2sc(C(=O)Nc3ccc4oc(C)nc4c3)cc2s1", "note": "[Compound 202]", "values": [{"measurement": "Antibacterial activity MDR-33", "setting": "[1]", "result": "+++ (+++ indicates <2 times of MIC50 on wild type strain (H37Rv))"}, {"measurement": "Antibacterial activity MDR-137", "setting": "[2]", "result": "+++ (+++ indicates <2 times of MIC50 on wild type strain (H37Rv))"}, {"measurement": "Antibacterial activity MDR-146", "setting": "[3]", "result": "+++ (+++ indicates <2 times of MIC50 on wild type strain (H37Rv))"}]}]}
